According to ChEMBL document CHEMBL3639191, “Benzimidazole derivatives: preparation and pharmaceutical applications” (2013):

Key:
Histone deacetylase 1 = Histone deacetylase 1 (Homo sapiens, UniProt Q13547); test: (§1) Enzyme Assay: The assay have been carried out in a 96 well format and the BIOMOL using a fluorescent-based HDAC activity assay.
Histone deacetylase 8 = target: T1, Histone deacetylase 8 (Homo sapiens, UniProt Q9BY41); test: as §1
T1 sequence (Q9BY41 whole entry): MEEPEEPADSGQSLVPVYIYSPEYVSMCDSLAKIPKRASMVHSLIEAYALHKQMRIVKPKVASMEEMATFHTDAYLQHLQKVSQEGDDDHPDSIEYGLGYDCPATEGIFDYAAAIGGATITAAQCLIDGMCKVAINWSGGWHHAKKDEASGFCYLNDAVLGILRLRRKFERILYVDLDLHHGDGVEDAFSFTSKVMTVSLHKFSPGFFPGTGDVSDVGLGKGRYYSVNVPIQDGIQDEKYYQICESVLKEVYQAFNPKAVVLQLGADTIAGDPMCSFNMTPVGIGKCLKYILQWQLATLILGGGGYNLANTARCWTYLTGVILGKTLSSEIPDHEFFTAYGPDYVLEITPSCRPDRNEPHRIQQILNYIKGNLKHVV

Sequence of Histone deacetylase 1 (Q13547 whole entry): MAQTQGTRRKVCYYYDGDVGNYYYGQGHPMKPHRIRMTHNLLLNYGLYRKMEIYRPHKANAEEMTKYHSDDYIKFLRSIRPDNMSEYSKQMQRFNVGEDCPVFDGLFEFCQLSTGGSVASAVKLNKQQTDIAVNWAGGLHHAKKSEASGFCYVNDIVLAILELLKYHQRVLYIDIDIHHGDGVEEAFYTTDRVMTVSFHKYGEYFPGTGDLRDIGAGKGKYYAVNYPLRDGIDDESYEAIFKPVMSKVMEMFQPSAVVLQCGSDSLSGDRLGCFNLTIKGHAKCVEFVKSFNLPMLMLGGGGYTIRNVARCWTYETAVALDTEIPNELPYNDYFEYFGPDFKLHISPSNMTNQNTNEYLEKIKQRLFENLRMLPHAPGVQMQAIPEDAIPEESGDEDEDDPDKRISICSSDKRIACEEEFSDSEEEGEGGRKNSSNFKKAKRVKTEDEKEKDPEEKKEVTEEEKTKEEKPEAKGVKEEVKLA

| SMILES | IC50 (Histone deacetylase 1) [nM] | IC50 (Histone deacetylase 8) [nM] |
| --- | --- | --- |
| COc1cc(-c2nc3cc(/C=C/C(=O)NO)ccc3n2C)ccc1OCc1ccccc1 | 1370 | 1710 |
| COc1ccc(-c2nc3cc(/C=C/C(=O)NO)ccc3n2CC(O)CO)cc1 (stereo unspecified) | 1380 | 262 |
| O=C(/C=C/c1ccc2c(c1)nc(C1CCCCC1)n2CCCO)NO | 3240 | 203 |
